“Also recorded” adds a separate entry of the source. Where two headings read alike, the source gives them in different places.
How the values were obtained:
MDA-MB-231 cells = test: MTT short-term toxicity assay in MDA-MB-231 cells; format: cell-based, human
Method: (§1) (A) MTT assay was performed after 24 hours. […] (B) LDH assay was performed after […]. LDH release by untreated cells was set to 1. Relative fold increase is shown (n=3).
(§2) (A) MTT assay was performed after 24 hours. Viability of untreated cells was set at 100% (data points are averages of 2 experiments). (B) LDH assay was performed after 24 hours. LDH release by untreated cells was set to 1. Relative fold increase is shown (averages from 2 experiments). (C) Representative photos show typical colony formation after initial 48 hours of drug treatment. In all cases of combination treatment with 3-BP mixed with […] (3-BP+POH), the indicated concentrations refer to each individual drugs, i.e., 100 μM 3-BP+POH means that 100 μM 3-BP was combined with 100 μM POH.
(§3) Methylthiazoletetrazolium (MTT) assays were performed as described earlier.

[1] = test system: HCT116 colon cancer cells; test: LDH release assay in HCT116 cells; format: cell-based; details: Homo sapiens, HCT-116; HCT116, 16 hours; read-out: half-maximal effect, LDH assay
Method: as §1
(§4) The capacity for rapid cell killing by NEO218 relative to 3-BP, POH and 3-BP+POH was evaluated via LDH assay, where LDH release is used as a proxy for cell death.
(§5) In FIG. 4, Panels (a) and (b), show the results of treating breast cancer cell lines with increasing concentrations of NEO218, 3-BP, or 3-BP mixed with POH. […] In all cases a-d, the release of LDH (as a marker of cell death) was measured after 24 hours.
(§6) Depending on the cell line, 2000 to 4000 cells per well were seeded in a volume of 50 μL into a 96-well plate. The next day, drugs ere added in an additional 50 μL of medium. At different time points (usually after 24 hours of incubation), 50 μL medium was removed and processed with the LDH Cytotoxicity Assay Kit (Thermo Fisher Scientific, Waltham, Mass.) according to the manufacturer's instructions. This kit measures extracellular LDH in culture medium using an enzymatic reaction that results in a red formazan product, which can be measured spectrophotometrically. The absorbance was measured at 490 and 680 nm. All LDH levels were normalized to untreated controls and presented as fold change of the controls.

[2] = test system: MDA-MB-231 breast cancer cells; test: LDH release assay in MDA-MB-231 / breast cancer cell lines; format: cell-based, human
Method: as §1, §2, §4, §5, §6

[3] = test system: MCF7, 231, T47D, BTB-12, ME16C, 468, HCT116 cells; test: MTT cytotoxic IC50 aligned with MCT1 expression levels (FIG. 14); details: Homo sapiens
Method: The expression levels of MCT1 in different tumor cell lines were determined by Western blot analysis and correlated with cytotoxic IC50 values in response of treatment of the same cells with NEO218 or 3-BP generated by MTT assay.

[4] = test system: HCT116 cells transfected with MCT-1 siRNA or scrambled control; test: MTT assay in HCT116 cells after siRNA knockdown of MCT-1; format: cell-based; details: Homo sapiens
Method: HCT116 cells were transfected with siRNA targeted at MCT-1 (circles), or with a scrambled control (diamonds). (A) Cellular sensitivity to 3-BP and NEO218 was determined by MTT assay. Dotted lines and arrow show the shift in IC50. Note pronounced shift to the right in 3-BP-treated cells (left, panel), compared to a minor shift to the left in NEO218-treated cells (right panel). (B) Knockdown of MCT-1 protein levels was confirmed by Western blot analysis with actin as the loading control. (C) MCT-1 knockdown was also confirmed at the individual cell level by immunocytochemistry. The two photos were similarly overexposed in order to emphasize the pronounced difference in MCT-1 levels.
as §3
All siRNAs were purchased from Qiagen, Valencia, Calif. To knock down MCT1 expression, we used siRNA Hs_SLC16A1_6 (target sequence: 5′-[…]-3′). As a non-silencing control, we used AllStars Negative Control siRNA, which lacks homology to any known mammalian gene. One hundred thousand cells per well of a 6-well plate were transfected with 50 nM siRNA using jetPRIME transfection reagent and buffer (Polyplus Transfection, New York, N.Y.). Medium was changed after 24 hours and cells were subjected to experiments 72 hours after transfection. 2.10. Immunoblots

GAPDH = molecular target: T1, GAPDH (Oryctolagus cuniculus, UniProt P46406); test: Mass spectrometry of purified GAPDH protein incubated with drug (cysteine modification); format: binding, rabbit; details: 60 μM drug, 15 minutes
T1 construct: Purified GAPDH protein (30 μg, 1 μg/μl) from rabbit muscle (ScienCell Research Laboratories); purchased ScienCell Research Laboratories; host or cells: rabbit muscle
Method: Direct interaction of NEO218 with different targets was analyzed by LC/MS analysis. (A) Purified rabbit GAPDH protein was incubated with 3-BP or NEO218 for 15 minutes, followed by LC/MS analysis. GAPDH protein contains 4 cysteines (Cys) at the indicated positions, and all four were identified as being modified with a pyruvate moiety in the case of 3-BP, and a pyruvate-perillyl alcohol moiety in the case of NEO218 (indicated by pyr). (B) Extracted ion chromatogram (XIC) of the reaction products of NEO218 and GSH restricted to mass over charge (m/z) values between 528 and 529. […] Location and relative size of the peak at 529.204 corresponds to the ^13C isotope peak of the reaction product. (C) Reaction of NAC with NEO218 yielded several products shown in the ion map (top panel). The co-eluting twin isotope at m/z 539 and 541 distributed equally (insert in top panel) and was selected for further analysis, as shown in the two chromatograms in the bottom panels.
Thirty microgram of purified GAPDH protein was incubated in vitro with 60 μM 3-BP for 15 minutes at 37° C. Mass spectrometrical analysis was then used to determine whether 3-BP could directly bind to the amino acid sequence of the enzyme. […]

T1 sequence (P46406 whole entry): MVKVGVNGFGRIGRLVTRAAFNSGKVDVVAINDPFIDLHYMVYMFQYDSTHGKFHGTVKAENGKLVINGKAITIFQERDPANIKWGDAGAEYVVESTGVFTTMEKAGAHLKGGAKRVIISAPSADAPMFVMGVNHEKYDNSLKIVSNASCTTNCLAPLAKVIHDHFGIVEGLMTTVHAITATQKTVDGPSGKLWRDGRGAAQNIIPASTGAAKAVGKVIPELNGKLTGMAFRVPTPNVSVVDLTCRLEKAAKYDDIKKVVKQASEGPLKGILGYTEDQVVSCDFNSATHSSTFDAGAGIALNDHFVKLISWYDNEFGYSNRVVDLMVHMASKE

| SMILES | IC50 (MDA-MB-231 cells; Homo sapiens, MDA-MB-231, 24 hours, read-out: effective concentration (half-maximal), MTT assay) | EC50 [1] | EC50 ([2]; Homo sapiens, MDA-MB-231, 16 hours, read-out: effective concentration (half-maximal), LDH assay) | IC50 ([3]; HCT-116, read-out: cytotoxic IC50) | IC50 ([3]; read-out: cytotoxic IC50) | IC50 ([4]; HCT-116, read-out: IC50 (MTT), HCT116, MCT-1 siRNA knockdown) | IC50 ([4]; HCT-116, read-out: IC50 (MTT), HCT116, scrambled control siRNA) | cysteine residues of GAPDH modified (GAPDH) | potency in MDA-MB-231 compared with HCT116 / with 3-BP alone (MDA-MB-231 cells; MTT, LDH and CFA assays) | earliest detection of cytotoxic effects (LDH release) after onset of drug treatment ([2]; MDA-MB-231, time course) | time at which half-maximal extent of cell death is reached ([2]; MDA-MB-231, time course of LDH release) | IC50 ([4]; HCT-116, HCT116, MCT-1 siRNA knockdown, read-out: IC50 (MTT)) | IC50 ([4]; HCT-116, HCT116, scrambled control siRNA, read-out: IC50 (MTT)) |
| --- | --- | --- | --- | --- | --- | --- | --- | --- | --- | --- | --- | --- | --- |
| O=C(O)C(=O)CBr [3-BP, 3-bromopyruvate] | ~220 µM | ~8 µM | ~350 µM | < 100 µM | > 300 µM | 67 µM | 20 µM | Cysteines at amino acid positions 245 and 282 turned out to be pyruvylated; also recorded: all 4 cysteines were altered by the addition of pyruvate |  |  |  |  |  |
| C=C(C)[C@@H]1CC=C(COC(=O)C(=O)CBr)CC1 [NEO218, 3-bromo-2-oxo-propionic acid 4-isopropenyl-cyclohex-1-enylmethyl ester] |  | ~8 µM |  |  | < 35 µM |  |  | the same four residues revealed attachment of pyruvate-perillyl alcohol moieties | maintained the same high potency | 1 h | < 8 h | 15 µM | 19 µM |

Reference: US10858305B2, “Perillyl alcohol-3-bromopyruvate conjugate and methods of treating cancer” (NeOnc Technologies, Inc., priority 2016, dated 2020)
